According to ChEMBL document CHEMBL1201862, “PubChem BioAssay data set” (2004):
Activity calls are given as the source filed them.

How the values were obtained:
[1] = target: T1, Short transient receptor potential channel 4 (Mus musculus, UniProt Q9QUQ5); assay: mouse TRPC4 channel activators, dose response, cell-based, HEK293 TRPC4/mu-opioid, Fluo-4 calcium (AID 434937); assay type: functional
T1 sequence (Q9QUQ5 whole entry): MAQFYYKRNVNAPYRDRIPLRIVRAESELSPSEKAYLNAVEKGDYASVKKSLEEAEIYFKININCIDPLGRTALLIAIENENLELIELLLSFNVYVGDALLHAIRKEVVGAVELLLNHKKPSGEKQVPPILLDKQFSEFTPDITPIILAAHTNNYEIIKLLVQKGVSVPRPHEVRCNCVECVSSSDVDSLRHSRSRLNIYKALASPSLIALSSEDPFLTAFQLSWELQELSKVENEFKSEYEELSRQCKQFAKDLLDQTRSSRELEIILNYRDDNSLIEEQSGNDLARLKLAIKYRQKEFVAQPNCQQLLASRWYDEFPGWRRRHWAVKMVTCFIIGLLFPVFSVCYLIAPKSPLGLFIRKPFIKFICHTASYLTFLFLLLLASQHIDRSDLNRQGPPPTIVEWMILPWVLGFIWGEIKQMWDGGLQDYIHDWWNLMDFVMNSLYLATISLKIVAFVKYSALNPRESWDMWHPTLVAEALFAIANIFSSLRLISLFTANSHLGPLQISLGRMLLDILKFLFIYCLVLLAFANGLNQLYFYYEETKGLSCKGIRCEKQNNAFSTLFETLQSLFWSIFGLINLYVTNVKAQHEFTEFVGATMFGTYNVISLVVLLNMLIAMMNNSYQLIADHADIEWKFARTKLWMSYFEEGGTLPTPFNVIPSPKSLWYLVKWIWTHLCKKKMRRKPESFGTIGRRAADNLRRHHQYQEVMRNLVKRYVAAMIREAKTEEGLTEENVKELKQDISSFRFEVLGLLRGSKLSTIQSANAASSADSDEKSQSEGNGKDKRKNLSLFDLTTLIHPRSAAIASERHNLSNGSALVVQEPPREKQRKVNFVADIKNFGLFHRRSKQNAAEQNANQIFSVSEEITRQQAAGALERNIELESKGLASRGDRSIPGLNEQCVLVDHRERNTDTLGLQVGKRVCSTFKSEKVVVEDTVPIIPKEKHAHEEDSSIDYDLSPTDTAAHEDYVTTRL

[2] = A cytotoxicity screen of small molecule inhibitors of the PhoP region in Salmonella typhi identified in the primary screen. [Related pubchem assays: 1850, 1864, 1985 ]; assay type: functional
[3] = target: T2, Nucleotide-binding oligomerization domain-containing protein 2 (Homo sapiens, UniProt Q9HC29); assay: NOD2 signaling inhibitors, cell-based, luminescence, uHTS, HEK293 (AID 1566); assay type: functional
T2 sequence (Q9HC29 whole entry, the tested form may be a part): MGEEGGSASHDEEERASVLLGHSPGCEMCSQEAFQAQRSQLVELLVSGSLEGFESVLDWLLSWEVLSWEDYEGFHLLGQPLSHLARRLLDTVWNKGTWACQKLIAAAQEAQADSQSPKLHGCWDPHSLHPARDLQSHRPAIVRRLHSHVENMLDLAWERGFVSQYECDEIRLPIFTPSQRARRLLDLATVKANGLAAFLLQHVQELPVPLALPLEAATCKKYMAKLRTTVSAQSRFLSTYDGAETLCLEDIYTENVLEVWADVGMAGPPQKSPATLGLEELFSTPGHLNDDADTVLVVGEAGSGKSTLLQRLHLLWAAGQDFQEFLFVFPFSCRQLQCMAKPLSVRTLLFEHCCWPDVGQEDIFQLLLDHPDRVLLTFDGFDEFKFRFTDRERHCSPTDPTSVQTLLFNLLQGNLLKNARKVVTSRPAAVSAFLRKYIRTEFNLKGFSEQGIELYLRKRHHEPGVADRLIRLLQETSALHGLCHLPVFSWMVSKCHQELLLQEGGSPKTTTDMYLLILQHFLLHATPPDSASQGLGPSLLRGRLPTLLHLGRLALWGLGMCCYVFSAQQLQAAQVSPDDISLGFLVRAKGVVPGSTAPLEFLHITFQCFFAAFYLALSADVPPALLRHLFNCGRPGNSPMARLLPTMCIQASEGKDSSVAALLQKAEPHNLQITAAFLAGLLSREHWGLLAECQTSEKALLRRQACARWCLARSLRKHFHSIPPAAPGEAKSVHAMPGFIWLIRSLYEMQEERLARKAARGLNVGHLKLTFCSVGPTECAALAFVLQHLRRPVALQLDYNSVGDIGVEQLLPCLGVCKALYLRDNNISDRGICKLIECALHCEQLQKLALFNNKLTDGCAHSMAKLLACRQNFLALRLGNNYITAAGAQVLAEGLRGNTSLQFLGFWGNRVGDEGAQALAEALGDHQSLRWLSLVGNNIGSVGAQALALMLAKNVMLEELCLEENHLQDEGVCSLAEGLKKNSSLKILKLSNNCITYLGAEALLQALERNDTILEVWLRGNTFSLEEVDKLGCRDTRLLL

[4] = test system: HEK293; assay: cells; assay type: functional, cell-based; conditions: Homo sapiens
[5] = target: T2, Nucleotide-binding oligomerization domain-containing protein 2; assay: PubChem AID 2334; assay type: functional
[6] = test system: HEK293; assay: cells; conditions: Homo sapiens
[7] = test system: Vero; assay: cells; assay type: functional, cell-based; conditions: Chlorocebus sabaeus
[8] = cytotoxicity toward NIH3T3 fibroblasts, dose response, counter-screen, cell-based, ATP luminescence, mouse fibroblasts (AID 2010); assay type: functional;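 note: cells exposed to compound for about 90 hours before reading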
[9] = test system: HEK293; assay: NOD1 signaling inhibitors, primary screen, cell-based, luminescence, uHTS (AID 1578); assay type: functional; conditions: Homo sapiens
[10] = inhibitors of intracellular T. cruzi replication, confirmation, NIH3T3 host cells, beta-gal luminescence (AID 2044); assay type: functional, cell-based;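 note: intracellular parasites grown in NIH/3T3 mouse fibroblasts as host cells; luminescent beta-galactosidase reporter signal from transgenic T. cruzi replicating inside host cells; inhibitors lower the luminescence signal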
[11] = test system: HEK293; assay: cells; assay type: functional, cell-based; conditions: Homo sapiens; remark: listed apart in the source
[12] = target: Tumor necrosis factor (Homo sapiens, UniProt P01375); assay: TNFa-triggered NF-kB activation inhibitors, SAR follow-up, cell-based, revised (AID 2337); assay type: functional
Chain of Tumor necrosis factor (P01375 whole entry): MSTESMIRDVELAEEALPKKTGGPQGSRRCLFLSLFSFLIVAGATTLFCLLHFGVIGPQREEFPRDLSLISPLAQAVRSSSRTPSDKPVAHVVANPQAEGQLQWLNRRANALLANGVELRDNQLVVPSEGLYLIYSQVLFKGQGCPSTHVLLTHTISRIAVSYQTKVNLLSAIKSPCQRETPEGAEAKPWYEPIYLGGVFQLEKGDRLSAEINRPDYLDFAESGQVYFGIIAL

[13] = test system: HEK293; assay: NOD2 signaling inhibitors in MDP-stimulated cells, cell-based, uHTS, luminescence (AID 2001); assay type: functional; conditions: Homo sapiens
[14] = test system: HEK293; assay: cells; assay type: functional, cell-based; conditions: Homo sapiens; remark: listed apart in the source
[15] = target: T3, Nucleotide-binding oligomerization domain-containing protein 1 (Homo sapiens, UniProt Q9Y239); assay: NOD1 signaling inhibitors, SAR follow-up, revised (AID 2333); assay type: functional
T3 sequence (Q9Y239 whole entry): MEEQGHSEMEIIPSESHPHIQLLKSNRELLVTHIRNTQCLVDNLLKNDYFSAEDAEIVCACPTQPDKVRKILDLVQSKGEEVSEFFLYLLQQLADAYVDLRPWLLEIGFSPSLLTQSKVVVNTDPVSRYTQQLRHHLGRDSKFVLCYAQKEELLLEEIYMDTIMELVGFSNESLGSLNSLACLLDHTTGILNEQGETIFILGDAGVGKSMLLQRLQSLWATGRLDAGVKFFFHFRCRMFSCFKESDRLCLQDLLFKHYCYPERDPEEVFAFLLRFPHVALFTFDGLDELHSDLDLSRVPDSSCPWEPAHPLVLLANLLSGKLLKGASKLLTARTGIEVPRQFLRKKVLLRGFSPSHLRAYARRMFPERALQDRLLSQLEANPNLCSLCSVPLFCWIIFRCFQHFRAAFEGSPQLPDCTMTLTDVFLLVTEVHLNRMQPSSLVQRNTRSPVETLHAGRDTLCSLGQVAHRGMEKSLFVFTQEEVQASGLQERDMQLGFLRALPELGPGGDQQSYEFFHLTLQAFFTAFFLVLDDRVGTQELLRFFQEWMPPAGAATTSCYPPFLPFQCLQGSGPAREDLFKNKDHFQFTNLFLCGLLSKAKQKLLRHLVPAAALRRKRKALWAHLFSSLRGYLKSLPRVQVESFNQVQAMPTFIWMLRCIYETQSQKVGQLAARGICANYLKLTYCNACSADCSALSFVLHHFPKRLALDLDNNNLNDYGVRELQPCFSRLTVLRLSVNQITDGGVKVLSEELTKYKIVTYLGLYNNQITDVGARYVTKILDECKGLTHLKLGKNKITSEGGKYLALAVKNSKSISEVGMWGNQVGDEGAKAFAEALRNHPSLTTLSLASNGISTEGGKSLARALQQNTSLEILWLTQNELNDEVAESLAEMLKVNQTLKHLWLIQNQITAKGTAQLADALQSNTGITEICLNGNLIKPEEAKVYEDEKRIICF

[16] = target: T4, Ubiquitin-conjugating enzyme E2 N (Homo sapiens, UniProt P61088); assay type: functional
T4 sequence (P61088 whole entry): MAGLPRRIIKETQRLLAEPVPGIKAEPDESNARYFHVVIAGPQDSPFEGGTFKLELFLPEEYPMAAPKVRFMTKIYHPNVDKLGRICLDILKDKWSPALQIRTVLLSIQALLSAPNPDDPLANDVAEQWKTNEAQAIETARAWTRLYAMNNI

[17] = LGR2 antagonists, dose response, cell-based, HEK293, CRE-luciferase reporter, cherry pick, set 2 (AID 743343); assay type: functional;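 note: transfected cells were stimulated with diluted bursicon conditioned medium after compound addition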
[18] = A549 cell cytotoxicity, dose response, cytotoxicity control, plate reader, cherry-pick, antagonist series (AID 743412); assay type: functional, cell-based
[19] = HepG2 cell cytotoxicity, dose response, cytotoxicity control, plate reader, cherry-pick, antagonist series (AID 743416); assay type: functional, cell-based
[20] = target: Neurotensin receptor type 1 (Homo sapiens, UniProt P30989); assay type: functional;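 note: Image-based confirmatory dose-response assay measuring agonist activity at NTR1; NTR1-expressing U2OS osteosarcoma cells imaged for beta-arrestin GFP spot formation; agonist potency where compounds increase beta-arrestin recruitment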
Chain of Neurotensin receptor type 1 (P30989 whole entry): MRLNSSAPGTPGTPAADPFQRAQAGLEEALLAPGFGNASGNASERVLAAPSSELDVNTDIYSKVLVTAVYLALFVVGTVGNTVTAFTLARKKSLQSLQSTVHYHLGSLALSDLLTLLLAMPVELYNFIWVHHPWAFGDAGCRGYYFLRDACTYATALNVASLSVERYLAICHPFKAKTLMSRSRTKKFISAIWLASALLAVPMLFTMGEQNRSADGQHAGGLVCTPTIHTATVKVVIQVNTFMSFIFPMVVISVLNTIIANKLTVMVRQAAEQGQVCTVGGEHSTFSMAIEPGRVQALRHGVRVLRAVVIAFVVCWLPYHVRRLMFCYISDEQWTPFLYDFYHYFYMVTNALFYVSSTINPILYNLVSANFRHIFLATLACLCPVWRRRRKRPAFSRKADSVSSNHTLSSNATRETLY

[21] = MC4R antagonists, dose response, counter-screen for LGR2 antagonist project, cell-based, plate reader, cherry pick (AID 743444); assay type: functional;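 note: transfected HEK 293 cells stimulated with alpha-MSH peptide; potency of inhibitors of the alpha-MSH evoked signal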
[22] = target: T4, Ubiquitin-conjugating enzyme E2 N; assay type: functional; remark: listed apart in the source
[23] = HEK293 cell cytotoxicity, dose response, cytotoxicity control, plate reader, cherry-picked samples (AID 743446); assay type: functional, cell-based
[24] = target: T5, Bcl-2-related protein A1 (Mus musculus, UniProt Q07440); assay type: functional;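 note: confirmatory dose–response counterscreen on Bfl-1, used to check hits from a UBC13 polyubiquitin inhibitor campaign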
T5 sequence (Q07440 whole entry): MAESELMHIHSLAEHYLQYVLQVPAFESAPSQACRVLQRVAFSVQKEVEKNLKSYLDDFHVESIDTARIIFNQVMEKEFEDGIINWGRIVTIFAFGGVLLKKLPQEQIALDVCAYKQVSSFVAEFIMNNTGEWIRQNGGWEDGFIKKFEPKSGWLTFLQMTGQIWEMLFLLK

[25] = target: Beta-2 adrenergic receptor (Homo sapiens, UniProt P07550); assay: beta2AR agonists driving receptor internalization, dose response, cell-based, FAP fluorogen, flow cytometry, cherry pick 1 (AID 588763); assay type: functional
Chain of Beta-2 adrenergic receptor (P07550 whole entry): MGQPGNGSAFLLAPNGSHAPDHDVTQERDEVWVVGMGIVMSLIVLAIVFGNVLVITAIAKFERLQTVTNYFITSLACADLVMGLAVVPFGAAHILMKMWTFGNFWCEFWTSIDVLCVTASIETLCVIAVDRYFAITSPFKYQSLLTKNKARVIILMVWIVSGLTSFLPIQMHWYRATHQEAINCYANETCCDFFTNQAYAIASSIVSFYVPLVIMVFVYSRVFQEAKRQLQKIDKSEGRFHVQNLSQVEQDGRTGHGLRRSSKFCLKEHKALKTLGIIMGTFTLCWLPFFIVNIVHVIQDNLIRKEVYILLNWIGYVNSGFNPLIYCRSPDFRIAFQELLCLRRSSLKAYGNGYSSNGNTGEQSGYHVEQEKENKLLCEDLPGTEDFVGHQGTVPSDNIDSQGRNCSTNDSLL

[26] = target: T6, Bcl-2-like protein 10 (Homo sapiens, UniProt Q9HD36); assay: displacers of TR3 peptide from Bcl-B, primary screen, selectivity assay for Bfl-1 inhibitor project, biochemical, fluorescence polarization, FITC-TR3 peptide (AID 748);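 note: fluorescence polarization from a fluorescein-labelled TR3 peptide binding purified Bcl-B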
T6 sequence (Q9HD36 whole entry): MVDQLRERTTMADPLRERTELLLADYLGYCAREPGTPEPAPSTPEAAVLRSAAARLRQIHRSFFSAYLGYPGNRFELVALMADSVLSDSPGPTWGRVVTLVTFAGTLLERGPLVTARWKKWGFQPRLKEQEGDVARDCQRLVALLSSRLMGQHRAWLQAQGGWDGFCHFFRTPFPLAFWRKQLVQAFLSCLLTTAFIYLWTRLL

[27] = target: Beta-galactosidase (Escherichia coli, UniProt Q8VNN2); assay: beta-galactosidase enzyme inhibitors and activators, dose response, artefact control for CCR6 antagonist project, biochemical, E. coli enzyme, set 3 (AID 504712); assay type: functional
Chain of Beta-galactosidase (Q8VNN2 whole entry): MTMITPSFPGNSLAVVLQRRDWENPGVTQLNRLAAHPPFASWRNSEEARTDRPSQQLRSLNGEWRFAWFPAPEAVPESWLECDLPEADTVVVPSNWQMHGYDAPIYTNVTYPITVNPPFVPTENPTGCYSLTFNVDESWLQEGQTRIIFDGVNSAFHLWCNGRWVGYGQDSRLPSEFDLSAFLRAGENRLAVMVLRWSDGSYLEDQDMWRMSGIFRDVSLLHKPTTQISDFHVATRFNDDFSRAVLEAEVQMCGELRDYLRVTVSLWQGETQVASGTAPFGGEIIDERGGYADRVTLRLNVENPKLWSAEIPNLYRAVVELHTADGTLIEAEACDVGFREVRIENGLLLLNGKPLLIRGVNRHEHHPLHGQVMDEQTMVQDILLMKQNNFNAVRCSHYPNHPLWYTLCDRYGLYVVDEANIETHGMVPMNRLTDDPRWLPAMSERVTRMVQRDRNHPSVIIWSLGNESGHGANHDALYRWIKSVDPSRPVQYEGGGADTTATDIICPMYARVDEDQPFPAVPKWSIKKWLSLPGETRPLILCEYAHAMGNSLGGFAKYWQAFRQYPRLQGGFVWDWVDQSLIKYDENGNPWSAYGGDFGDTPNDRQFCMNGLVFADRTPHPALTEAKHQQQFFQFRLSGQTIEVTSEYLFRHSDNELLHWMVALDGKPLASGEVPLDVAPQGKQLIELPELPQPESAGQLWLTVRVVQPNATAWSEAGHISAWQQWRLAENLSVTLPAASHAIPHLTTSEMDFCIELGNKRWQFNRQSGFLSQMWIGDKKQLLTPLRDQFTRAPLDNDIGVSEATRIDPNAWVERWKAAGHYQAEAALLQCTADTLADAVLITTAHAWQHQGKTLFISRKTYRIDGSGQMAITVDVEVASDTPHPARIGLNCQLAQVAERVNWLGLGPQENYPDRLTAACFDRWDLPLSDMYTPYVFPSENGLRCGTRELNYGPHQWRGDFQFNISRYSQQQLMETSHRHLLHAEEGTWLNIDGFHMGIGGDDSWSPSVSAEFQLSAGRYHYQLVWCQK

[28] = target: T7, Hexokinase HKDC1 (Homo sapiens, UniProt Q2TB90); assay: HKDC1 hexokinase inhibitors, dose response, biochemical, W721R variant (AID 504729); assay type: functional
T7 sequence (Q2TB90 whole entry): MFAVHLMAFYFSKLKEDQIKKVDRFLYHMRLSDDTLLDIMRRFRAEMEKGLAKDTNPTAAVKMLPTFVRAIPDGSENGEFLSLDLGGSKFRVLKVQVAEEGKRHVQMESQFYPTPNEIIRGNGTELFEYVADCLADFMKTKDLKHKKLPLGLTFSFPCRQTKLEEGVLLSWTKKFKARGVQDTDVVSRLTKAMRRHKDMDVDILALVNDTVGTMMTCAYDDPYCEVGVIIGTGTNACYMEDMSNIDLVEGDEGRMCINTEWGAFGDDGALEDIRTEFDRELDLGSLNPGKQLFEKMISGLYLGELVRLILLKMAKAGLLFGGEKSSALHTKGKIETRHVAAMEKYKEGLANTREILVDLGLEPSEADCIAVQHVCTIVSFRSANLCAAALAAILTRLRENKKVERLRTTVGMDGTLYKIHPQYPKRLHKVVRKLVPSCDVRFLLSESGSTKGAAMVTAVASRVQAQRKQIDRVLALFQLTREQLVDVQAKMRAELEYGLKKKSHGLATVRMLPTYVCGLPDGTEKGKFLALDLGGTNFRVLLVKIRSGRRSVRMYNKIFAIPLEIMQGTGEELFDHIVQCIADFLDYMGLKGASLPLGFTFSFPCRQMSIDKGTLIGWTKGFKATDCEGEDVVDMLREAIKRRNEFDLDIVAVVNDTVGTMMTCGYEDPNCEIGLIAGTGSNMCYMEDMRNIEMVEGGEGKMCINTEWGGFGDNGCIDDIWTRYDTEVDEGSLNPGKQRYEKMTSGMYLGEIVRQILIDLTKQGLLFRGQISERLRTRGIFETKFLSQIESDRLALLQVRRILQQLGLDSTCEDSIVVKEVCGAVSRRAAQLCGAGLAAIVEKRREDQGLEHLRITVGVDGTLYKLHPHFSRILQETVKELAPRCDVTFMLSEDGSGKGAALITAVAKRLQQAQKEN

[29] = Luminescence Cell-Based Dose Response HTS to Identify Inhibitors of 5'UTR Stem-Loop Driven Prion Protein mRNA Translation in H4 Neuroglioblastoma Cells. [Related pubchem assays: 1827 (Project Summary), 1813 (Primary HTS)]; assay type: functional
[30] = inhibitors of SNCA 5'UTR-driven reporter translation, confirmation, H4 neuroglioma cells, luminescence (AID 1988); assay type: functional, cell-based
[31] = inhibitors of firefly luciferase expression or activity, dose response, H4 neuroglioma cells, luminescence (AID 1990); assay type: functional, cell-based

Row | SMILES | EC50 [3] | IC50 [4] | IC50 [5] | IC50 [6] | EC50 [8] | EC50 [9] | EC50 [10] | IC50 [11] | IC50 [12] | IC50 [13] | IC50 [14] | IC50 [15] | other results
1 | CN(CCOc1ccc(Cl)cc1)CC(O)c1ccccc1 (stereo not drawn) |  |  |  |  |  |  |  |  |  |  |  |  | EC50 [1]: 1.88 µM (active); EC50 [2]: > 50 µM (active)
2 | Cc1ccc2c(c1)CCCN2S(=O)(=O)c1cccc(C(=O)Nc2ccccc2C(=O)O)c1 | 4.45 µM (active) | > 20 µM (inactive) | 12.6 µM (active) | > 20 µM (inactive) | 4.22 µM (active) | 9.32 µM (active) | 4.95 µM (active) | > 20 µM (inactive) | 7.52 µM (active) | 15.9 µM (inactive) | > 20 µM (inactive) | 9.05 µM (active) | IC50 [7]: > 25 µM (active)
3 | CCOC(=O)/C(=C\c1cccc(O)c1)c1nc(O)c2c(C)c(C)sc2n1 |  |  |  |  |  |  |  |  |  |  |  |  | IC50 [16]: 16.4 µM (active); AC50 [17]: 12.9 µM (active); AC50 [18]: 20.3 µM (active); AC50 [19]: 13.5 µM (active); EC50 [20]: 6.59 µM (active); AC50 [21]: 24.5 µM (active); IC50 [22]: > 20 µM (inactive); AC50 [23]: 22.8 µM (active); IC50 [24]: > 20 µM (inactive)
4 | O=C(CCCCCn1c(=S)[nH]c2ccccc2c1=O)NCc1ccc2c(c1)OCO2 |  |  |  |  |  |  |  |  |  |  |  |  | EC50 [25]: 0.0077 µM (active); IC50 [26]: > 100 µM (inactive)
5 | COC(=O)c1ccc(CCc2cc(O)c(Br)cc2O)cc1 |  |  |  |  |  |  |  |  |  |  |  |  | IC50 [27]: > 66.6 µM (inactive); IC50 [28]: 6.54 µM (active)
6 | CCCCCn1c(=O)c(C(=O)Nc2ccccc2S(N)(=O)=O)c(O)c2ccccc21 | 5.7 µM (active) | > 20 µM (inactive) | 6.92 µM (active) | > 20 µM (inactive) | > 30 µM (not active) | 6.17 µM (active) | 2.07 µM (active) | > 20 µM (inactive) | 3.44 µM (active) | 8.2 µM (active) | > 20 µM (inactive) | 5.88 µM (active) | EC50 [29]: > 120 µM (not active); EC50 [30]: 9.08 µM (active); EC50 [31]: > 120 µM (not active)
